Measured values published in patent US8569306B2, “JNK modulators” (Hoffmann-La Roche, Inc., priority 2009, dated 2013).

How the values were obtained:
Human JNK2α2 = Human JNK2α2 (Homo sapiens (Human), UniProt P45984); experiment: JNK assay in vitro, phosphorylation of GST-ATF2 (19-96) with [γ-33P] ATP; assay type: biochemical; conditions: Human JNK2α2, 1 nM enzyme, 1 μM ATF2, 8 μM ATP; read-out: JNK2 − IC50
Experimental: (§1) JNK activity was measured by phosphorylation of GST-ATF2 (19-96) with [γ-^33P] ATP. […] Human JNK2α2 assay contains 1 nM enzyme, 1 μM ATF2, 8 μM ATP with 1 μCi [γ-^33P] ATP. Human JNK1α1 assay contains 2 nM enzyme, 1 μM ATF2, 6 μM ATP with 1 μCi [γ-^33P] ATP. Human JNK3 (Upstate Biotech #14-501M) assay contains 2 nM enzyme, 1 μM ATF2, 4 μM ATP with 1 μCi [γ-^33P] ATP. The enzyme assay was carried out in the presence or absence of several compound concentrations. JNK and compound were pre-incubated for 10 min, followed by initiation of the enzymatic reaction by adding ATP and the substrate. The reaction mixture was incubated at 30° C. for 30 min. At the end of incubation, the reaction was terminated by transferring 25 μl of the reaction mixture to 150 μl of 10% glutathione Sepharose® slurry (Amersham #27-4574-01) containing 135 mM EDTA. The reaction product was captured on the affinity resin, and washed on a filtration plate (Millipore, MABVNOB50) with phosphate buffered saline for six times to remove free radionucleotide. The incorporation of ^33P into ATF2 was quantified on a microplate scintillation counter (Packard Topcount). Compound inhibition potency on JNK was measured by IC50 value generated from ten concentration inhibition curves fitted into the 3-parameter model: % inhibition=Maximum/(1+(IC50/[Inhibitor])^slope). Data were analyzed on Microsoft Excel for parameter estimation.

Human JNK1α1 = Human JNK1α1 (Homo sapiens (Human), UniProt P45983); experiment: JNK assay in vitro, phosphorylation of GST-ATF2 (19-96) with [γ-33P] ATP; assay type: biochemical; conditions: Human JNK1α1, 2 nM enzyme, 1 μM ATF2, 6 μM ATP; read-out: JNK1 − IC50
Experimental: as §1

Human JNK1α1, sequence (P45983 other isoform, or with tags, fused parts or gaps): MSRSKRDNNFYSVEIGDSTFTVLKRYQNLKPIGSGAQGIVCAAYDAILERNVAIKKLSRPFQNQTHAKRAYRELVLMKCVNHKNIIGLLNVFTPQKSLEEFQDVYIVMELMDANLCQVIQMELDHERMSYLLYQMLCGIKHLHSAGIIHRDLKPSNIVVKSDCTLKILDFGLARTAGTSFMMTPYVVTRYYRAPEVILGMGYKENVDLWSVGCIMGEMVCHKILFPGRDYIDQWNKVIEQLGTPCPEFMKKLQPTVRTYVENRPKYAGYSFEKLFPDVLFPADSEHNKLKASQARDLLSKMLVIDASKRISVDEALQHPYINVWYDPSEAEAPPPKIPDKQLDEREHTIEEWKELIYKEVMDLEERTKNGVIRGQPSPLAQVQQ
Human JNK2α2, sequence (P45984 whole entry): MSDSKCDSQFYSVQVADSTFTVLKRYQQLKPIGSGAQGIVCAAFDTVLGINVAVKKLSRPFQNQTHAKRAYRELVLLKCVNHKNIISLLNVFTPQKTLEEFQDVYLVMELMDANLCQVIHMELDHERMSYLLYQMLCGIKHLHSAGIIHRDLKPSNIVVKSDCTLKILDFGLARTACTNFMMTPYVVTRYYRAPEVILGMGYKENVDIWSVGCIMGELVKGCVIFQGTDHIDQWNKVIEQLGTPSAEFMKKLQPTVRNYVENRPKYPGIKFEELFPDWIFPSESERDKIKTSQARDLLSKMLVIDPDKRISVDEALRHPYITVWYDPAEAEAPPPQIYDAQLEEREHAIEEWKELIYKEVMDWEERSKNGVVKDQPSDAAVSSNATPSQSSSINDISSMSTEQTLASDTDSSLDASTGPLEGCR

Row | Compound | IC50 (Human JNK2α2) [nM] | melting point [°C] | IC50 (Human JNK1α1) [nM]
1 | CC(C)(O)c1cccn2c(-c3ccnc(N[C@H]4CC[C@H](C(=O)N5CCC(O)CC5)CC4)n3)cnc12 [Compound 2, (4-{4-[8-(1-hydroxy-1-methyl-ethyl)-imidazo[1,2-a]pyridin-3-yl]-pyrimidin-2-ylamino}-cyclohexyl)-(4-hydroxy-piperidin-1-yl)-methanone] | 369 | 188 to 190 | 
2 | CC(C)(O)c1cccn2c(-c3ccnc(N[C@H]4CC[C@H](NS(C)(=O)=O)CC4)n3)cnc12 [Compound 3, N-(4-{4-[8-(1-Hydroxy-1-methyl-ethyl)-imidazo[1,2-a]pyridine-3-yl]-pyrimidin-2-ylamino}-cyclohexyl)-methanesulfonamide] |  | 249 to 250 | 
3 | CS(=O)(=O)N[C@H]1CC[C@H](Nc2nccc(-c3cnc4c(OCc5ccccc5)cccn34)n2)CC1 [Compound 7, N-{4-[4-(8-benzyloxy-imidazo[1,2-a]pyridin-3-yl)-pyrimidin-2-ylamino]-cyclohexyl}-methanesulfonamide] | 52.7 | 236.9 to 241 | 23.7
4 | CCOC(=O)[C@H]1CC[C@H](Nc2nccc(-c3cnc4c(OCc5ccccc5)cccn34)n2)CC1 [Compound 8, 4-[4-(8-benzyloxy-imidazo[1,2-a]pyridine-3-yl)-pyrimidin-2-ylamino]-cyclohexanecarboxylic acid ethyl ester] | 104 | 147 to 149 | 48.9
5 | O[C@H]1CC[C@H](Nc2nccc(-c3cnc4c(OCc5ccccc5)cccn34)n2)CC1 [Compound 9, 4-[4-(8-Benzyloxy-imidazo[1,2-a]pyridin-3-yl)-pyrimidin-2-yl-amino]-cyclohexanol] | 49.4 | 236 to 238 | 26.9
6 | CS(=O)(=O)N[C@H]1CC[C@H](Nc2nccc(-c3cnc4ccccn34)n2)CC1 [Compound 10, N-[4-(4-Imidazo[1,2-a]pyridin-3-yl-pyrimidin-2-ylamino)-cyclohexyl]-methanesulfonamide] | 214 | 259 to 261 | 56.7

Continued by falling IC50 (Human JNK2α2), values first:

Row | IC50 (Human JNK2α2) [nM] | melting point [°C] | IC50 (Human JNK1α1) [nM] | Compound
7 | 295 | 223 to 224 |  | CC(C)(O)c1cccn2c(-c3ccnc(N[C@H]4CC[C@H](CS(C)(=O)=O)CC4)n3)cnc12 [Compound 1, 2-{3-[2-(4-methanesulfonylmethyl-cyclohexylamino)-pyrimidin-4-yl]-imidazo[1,2-a]pyridin-8-yl}-propan-2-ol]
8 | 254 |  | 86.6 | O[C@H]1CC[C@H](Nc2nccc(-c3cnc4ccccn34)n2)CC1 [Compound 11, 4-(4-Imidazo[1,2-a]pyridin-3-yl-pyrimidin-2-ylamino)-cyclohexanol]
9 | 124 | > 300 |  | CN(C)S(=O)(=O)N[C@H]1CC[C@H](Nc2nccc(-c3cnc4c(C(C)(C)O)cccn34)n2)CC1 [Compound 4, N-(4-{4-[8-(1-Hydroxy-1-methyl-ethyl)-imidazo[1,2-a]pyridine-3-yl]-pyrimidin-2-ylamino}-cyclohexyl)-(N,N-dimethylamino)sulfonamide]
10 | 55.9 | 210 to 212 | 33.3 | O=C([C@H]1CC[C@H](Nc2nccc(-c3cnc4c(OCc5ccccc5)cccn34)n2)CC1)N1CCC(O)CC1 [Compound 6, {4-[4-(8-Benzyloxy-imidazo[1,2-a]pyridin-3-yl)-pyrimidin-2-ylamino]-cyclohexyl}-(4-hydroxy-piperidin-1-yl)-methanone]
11 | 50.3 | 258 to 259 | 21.6 | CS(=O)(=O)CCCOc1cccn2c(-c3ccnc(N[C@H]4CC[C@H](C(=O)N5CCC(O)CC5)CC4)n3)cnc12 [Compound 5, (4-Hydroxy-piperidin-1-yl)-(4-{4-[8-(3-methanesulfonyl-propoxy)-imidazo[1,2-a]pyridin-3-yl]-pyrimidin-2-ylamino}-cyclohexyl)-methanone]
